Measurements taken from article PMC11758220, “Identification of a Privileged Scaffold for Inhibition of Sterol Transport Proteins through the Synthesis and Ring Distortion of Diverse, Pseudo-Natural Products” (ACS Central Science, 2025).

Columns and labels:
Format in all cases: binding
STARD3 = target: T1, STARD3 (Homo sapiens, UniProt Q14849); assay: Differential scanning fluorimetry (DSF), STARD3; conditions: single dose, Dose = 10 µM
T1 construct: STARD3(216-444); made in house; host or cells: E. coli BL21(DE3)
T1 sequence (Q14849 216-444): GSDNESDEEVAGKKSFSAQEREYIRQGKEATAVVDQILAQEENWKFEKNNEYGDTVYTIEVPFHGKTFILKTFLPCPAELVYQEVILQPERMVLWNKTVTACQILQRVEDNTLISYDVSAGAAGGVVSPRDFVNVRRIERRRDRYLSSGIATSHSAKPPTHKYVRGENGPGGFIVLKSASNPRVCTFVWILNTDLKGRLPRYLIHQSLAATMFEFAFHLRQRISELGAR
From the text: (§1) Protein expression constructs
(§2) Human ASTER domains of Aster-A(359-547), -B(364-552) and -C(318-504) were subcloned into a pGEX-6p-2rbs vector, thus introducing the cloning artifact ‘GPLGS’.3 The pGEX-6P-1-GST-OSBP(377- […]
(§3) a gift from James H. Hurley (University of California).4 The pHIS_2His6_Thrombin_STARD4(2-205;C75S) plasmid was a gift from Young Jun Im (Chonnam National University).5 STARD5A was a gift from Nicola Burgess-Brown (Addgene plasmid #42392; http://n2t.net/addgene:42392; […]
(§4) Protein expression and purification […]
(§5) vectors including an N-terminal PreScission-cleavable glutathione S-transferase (GST)-tag were expressed in Escherichia coli (E. coli) OverExpress C41 in Terrific Broth (TB) medium for 16 h at 18 °C after the induction with 0.1 mM isopropyl β-D-1-thiogalactopyranoside (IPTG). Cells were harvested at 3500 × g for 15 minutes and lysed by sonication in buffer containing 50 mM HEPES pH 7.5, 300 mM NaCl, 10 %v/v glycerol, 5 mM dithiothreitol (DTT), 0.1 %v/v Triton X-100 and protease inhibitor mix HP plus (Serva). The lysate was purified by affinity chromatography on a GSTrap FF column (Cytiva) using an ÄKTA Start (Cytiva) in buffer containing 50 mM HEPES pH 7.5, 300 mM NaCl, 10 %v/v glycerol, 5 mM DTT and 0.01 %v/v Triton X-100. The GST-tag was cleaved overnight on the column at 4 °C. The Aster sterol binding domains were further purified by size-exclusion chromatography (SEC) on a HiLoad 16/600 Superdex 75 pg (Cytiva) in buffer containing 20 mM HEPES pH 7.5, 300 mM NaCl, 10 %v/v […]
(§6) STARD5(6-213) harboring an N-terminal His6-Tag were expressed in E. coli BL21(DE3) in Luria-Bertani Broth (LB) medium for approximately 16 h at 18 °C after induction with 0.15 mM IPTG. Cells were harvested at 3500 × g for 15 minutes and lysed by sonication in buffer containing 50 mM HEPES pH 7.5, 150 mM NaCl, 5 %v/v glycerol, 5 mM DTT, 0.1 %v/v Triton X -100 and ethylenediaminetetraacetic acid (EDTA)-free protease inhibitor cocktail (Sigma-Aldrich). The cleared lysate was purified by affinity chromatography on a Ni-NTA Superflow Cartridge (Qiagen) using an ÄKTA Start (Cytiva) in buffer containing 50 mM HEPES pH 7.5, 150 mM NaCl, 5 %v/v glycerol, 5 mM DTT. START domains were eluted by using elution buffer containing 50 mM HEPES pH 7.5, 150 mM NaCl, 5 %v/v glycerol, 5 mM DTT and 500 mM imidazole. Proteins were further purified by SEC on a HiLoad 16/600 Superdex 75 pg (Cytiva) in buffer containing 20 mM HEPES pH 7.5, 150 mM NaCl, 5 %v/v glycerol and 2 mM DTT.
(§7) The ORP domain of human OSBP(377-807) in the pGEX-6p-1 vector with an N-terminal PreScission-cleavable GST-tag was expressed in E. coli OverExpress C41 in LB medium for 16 h at 18 °C after induction with 0.1 mM IPTG. Cells were harvested at 3500 × g for 15 minutes and lysed by sonication in buffer containing 20 mM HEPES pH 7.5, 300 mM NaCl, 10 %v/v glycerol, 5 mM DTT, 0.1 %v/v Triton X-100 and EDTA-free protease inhibitor cocktail (Sigma-Aldrich). The cleared lysate was purified by affinity chromatography on a GSTrap HF column (Cytiva) using an ÄKTA Start (Cytiva) in buffer containing 20 mM HEPES pH 7.5, 300 mM NaCl, 10 %v/v glycerol, 5 mM DTT. OSBP(377 -807) was eluted by using elution buffer containing 20 mM HEPES pH 7.5, 300 mM NaCl, 10 %v/v glycerol, 5 mM DTT and 10 mM reduced glutathione. Proteins were further purified by SEC on a HiLoad 16/600 Superdex 75 pg (Cytiva) using an ÄKTA Explorer (Cytiva) in buffer containing 20 mM HEPES pH 7.5, 150 mM NaCl, 10 %v/v glycerol and 2 mM DTT.
(§8) The ORP domains of human ORP1(534-950) in pET24b(+) and ORP2(49-480) in the pET24b(+) vector including an N-terminal His6-Tag were expressed in E. coli BL21(DE3) in TB medium for approximately 16 h at 18 °C after induction with 0.1 mM IPTG. Cells were collected at 3500 × g for 15 minutes and lysed by sonification in buffer containing 10 mM Tris-HCl pH 8, 300 mM NaCl, 5 % glycerol, 2 mM DTT, 0.1 % Triton X-100 and EDTA-free protease inhibitor cocktail (Sigma-Aldrich). The cleared […]

OSBP = target: T2, OSBP (Homo sapiens, UniProt P22059); assay: Fluorescence polarisation (FP) competition with NBD-cholesterol, OSBP; conditions: single dose; for OSBP (FP) inhibition: Dose = 10 µM
T2 construct: OSBP(377-807); host or cells: E. coli OverExpress C41
T2 sequence (P22059 377-807): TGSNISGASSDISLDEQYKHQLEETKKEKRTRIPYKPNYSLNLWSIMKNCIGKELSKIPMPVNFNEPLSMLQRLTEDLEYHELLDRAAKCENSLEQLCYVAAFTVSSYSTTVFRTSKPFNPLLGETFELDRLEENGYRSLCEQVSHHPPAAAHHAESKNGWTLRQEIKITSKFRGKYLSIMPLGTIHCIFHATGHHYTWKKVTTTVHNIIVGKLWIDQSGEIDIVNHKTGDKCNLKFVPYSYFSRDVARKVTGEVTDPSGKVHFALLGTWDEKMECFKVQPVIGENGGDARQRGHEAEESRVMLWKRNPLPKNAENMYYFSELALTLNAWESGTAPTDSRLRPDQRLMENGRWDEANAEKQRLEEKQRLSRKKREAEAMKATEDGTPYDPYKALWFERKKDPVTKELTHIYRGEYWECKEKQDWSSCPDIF
From the text: as §1, §2, §3, §4, §5, §6, §7, §8

Aster-C = target: T3, Aster-C (Homo sapiens, UniProt Q8IYS0); assay: Fluorescence polarisation (FP) competition with NBD-cholesterol, Aster-C; conditions: single dose, Dose = 10 µM
T3 construct: -C(318-504); GST (PreScission-cleavable) (N, cleaved yes); made in house; host or cells: E. coli OverExpress C41
T3 sequence (Q8IYS0 318-504): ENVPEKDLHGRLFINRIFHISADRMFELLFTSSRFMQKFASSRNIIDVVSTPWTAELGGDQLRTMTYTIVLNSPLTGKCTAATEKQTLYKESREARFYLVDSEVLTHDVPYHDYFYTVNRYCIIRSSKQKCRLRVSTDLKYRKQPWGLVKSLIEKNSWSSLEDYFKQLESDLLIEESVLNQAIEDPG
From the text: as §1, §2, §3, §4, §5, §6, §7, §8

SMILES	STARD3 (DSF) ΔTm (STARD3)	OSBP (FP) inhibition (OSBP)	Aster-C (FP) inhibition (Aster-C)	ΔTm at 10 µM (STARD3)	inhibition at 10 µM (OSBP)	inhibition at 10 µM (Aster-C)
C[C@]12CC[C@@H](O)C[C@H]1CCc1c2nc2ccc(Cl)cc2c1-c1ccccc1 [Compound 2e]	-0.1 °C	10.6%	-5%	–	–	–
C[C@]12CC[C@@H](O)C[C@H]1CCc1c2[nH]c2ncccc12 [Compound 3]	–	–	–	-0.0743 °C	2.5%	-3.2%
C[C@]12CC[C@@H](O)C[C@H]1CCC[C@]21Nc2ccccc2-n2cccc21 [Compound 4]	0.9 °C	10.0%	-5.6%	0.5 °C	21%	–
C[C@]12CC[C@@H](O)C[C@H]1CCC[C@]21NC(=O)c2ccccc2N1 [Compound 5a]	0.0244 °C	15.5%	-4%	-0.16 °C	9.1%	0%
C[C@]12CC[C@@H](O)C[C@H]1CCC[C@]21NC(=O)c2ccc(F)cc2N1 [Compound 5b]	0.0138 °C	24.6%	-4%	-0.121 °C	8.2%	-1.6%
COc1ccc2c(c1)C(=O)N[C@]1(CCC[C@@H]3C[C@H](O)CC[C@@]31C)N2 [Compound 5c]	0.0624 °C	6.4%	-3.2%	0.114 °C	18.2%	–
C[C@]12CC[C@@H](O)C[C@H]1CCc1nc3ccccc3nc12 [Compound 7a]	–	–	–	-0.1 °C	4%	19%
Cc1cc2nc3c(nc2cc1C)[C@@]1(C)CC[C@@H](O)C[C@H]1CC3 [Compound 7b]	–	–	–	0.0153 °C	24%	0.8%
C[C@]12CC[C@@H](O)C[C@H]1CCc1nc3cc(F)c(F)cc3nc12 [Compound 7c]	-0.124 °C	8.0%	-4%	–	–	–
C[C@]12CC[C@@H](O)C[C@H]1CCc1nc3cc(Cl)c(Cl)cc3nc12 [Compound 7d]	-0.1 °C	-1.0%	-4%	–	–	–
C[C@]12CC[C@@H](O)C[C@H]1CCc1nc3cc(Br)c(Br)cc3nc12 [Compound 7e]	0.138 °C	3.0%	1.6%	–	–	–
C[C@]12CC[C@@H](O)C[C@H]1CCc1sc(N)nc12 [Compound 8a]	–	–	–	0.0829 °C	18.6%	0%
